Our source for the melting point values is a melting point compilation (Tetko et al.; mined from patent text by program, amines drawn as free bases though some values may be those of a salt).

The term melting point denotes the temperature of the solid-liquid transition. The compound `CC(C)(C)c1ccc(OS(C)(=O)=O)c(C(C)(C)C)c1` gave a melting point of 63 °C.
On to `O=S(=O)(Nc1ccccc1OC1CCCCC1)C(F)(F)F`, for which the melting point lay in the range of 83 to 85 °C.
On to `CCCN1C(=O)c2cccnc2NS1(=O)=O`, for which the melting point is 208 to 210 °C.
With `COc1ccc2ncc(N)c(Nc3ccccc3Cl)c2c1` the figure was 120 to 123 °C.
With `COc1cc(C(C)=O)ccc1OCCCN1CCC(c2noc3ccc(F)cc23)CC1` the figure was 103 to 105 °C.
`COc1ccc(C(=O)Nc2ccc(C)c(C)c2)cc1N` came in with a melting point of 138 to 142 °C.
Then `CCCCC#CCCOc1ccc(C=O)cc1OC`, with 64.5 to 65.5 °C; and `COc1cccc([C@H]2O[C@H](CC(=O)N[C@@H](CCSC)C(=O)O)C(=O)N(CC(C)(C)CO)c3ccc(Cl)cc32)c1OC`, with 129 to 130 °C.
Consider `CCn1nc2c(N)nc3cc(OS(=O)(=O)C(F)(F)F)ccc3c2c1CCc1ccccc1`, for which the melting point lay in the range of 178 to 179 °C.
Turning to `COc1ccc(C2=Nc3ccc(N4CCCC4)cc3C(=O)C2)cc1`, the melting point is 312 to 313 °C.
`O=c1oc2c(c(O)c1-c1ccccc1)CCCC2c1ccccc1` (stereo unspecified) had a melting point of 185 °C.
In the case of `Cc1ccccc1C(=O)NC(n1cncn1)C(Cl)(Cl)CCl` (stereo unspecified), the melting point lay within 133 to 137 °C.
The compound `CN(C)c1ccc(NC(=O)N(Cc2ccccc2)C[C@@H]2CCCC[C@H]2CN(Cc2ccccc2)C(=O)Nc2ccc(N(C)C)cc2)cc1` (relative stereo) yielded a melting point of 109 to 113 °C.
Then `O=[N+]([O-])c1ccc(-n2ccnc2SCc2ccccc2N2CCOCC2)nc1`, with 199 to 202 °C.
Then `Cn1ncc(C(=O)N2CCC2)c1C(=O)Nc1ccn2nc(-c3ccncc3)nc2c1`, with over 250 °C; and `Fc1cccc(-c2nc3cnccc3[nH]2)c1`, with 290 to 291 °C.
The compound `CCCc1c(OCCCCCc2nnnn2C)ccc(C(C)=O)c1O` gave a melting point of 72 to 75 °C.
With `CC=COCCC[C@H]1CC[C@H](c2cccc(F)c2F)CC1` the figure was 35.5 to 36.9 °C; with `Cn1cc(CN2C(=O)C3(COc4cc5c(cc43)OCCO5)c3ccccc32)ccc1=O` (stereo unspecified), 205 to 207 °C; with `COC(=O)C1=C(C)NC(c2csc(Cl)n2)=NC1c1ccc(F)cc1Cl` (stereo unspecified), 160 to 162 °C.
Then `O=C(O)C1=Cc2cc(Cl)c(Oc3ccccc3Cl)cc2OC1C(F)(F)F` (stereo unspecified), with 199 °C.
As to `CNC(=O)Cn1c(=O)c(=O)[nH]c2cc(C(F)(F)F)c(-n3cccc3)cc21`, the melting point was over 250 °C.
With `O=P(ONc1ccccc1)(ONc1ccccc1)Oc1ccccc1` the figure was 176 to 178 °C.
With `Fc1ccc(-c2ccn(C3CN4CCC3CC4)c2-c2ccncc2)cc1` (stereo unspecified) the figure was 229 to 230 °C.
Then `COc1ccc(Cl)c2c1C(=O)OC2=O`, with 192 to 193 °C; and `CC(=O)N1CCCC(=O)c2ccc(Cl)cc2CCC1=O`, with 154 to 156 °C.
`Cc1cccc2ncc(C(=O)NC3CCCC3)c(=O)n12` registered a melting point of 158 to 160 °C.
With `Cn1c(COc2ccc(C=C3SC(=O)NC3=O)cc2)nc2ccc(Sc3cc(C(C)(C)C)c(O)c(C(C)(C)C)c3)cc21` the figure was 247 to 249 °C; with `Cn1cc(Cl)cnc1=O`, 210 °C.
With `O=C(Cn1c(-c2ccc(Cl)cc2)nc2cccnc21)Nc1ccccn1` the figure was 190 to 191 °C.
`O=C(CCC1OC=CO1)c1ccc2c(c1)OCO2` showed a melting point of 94 to 96 °C.
Then `CC1(C(=O)NCc2cccs2)CC1`, with 70 to 71 °C.
With `COc1c(N2CC(=NO)C3(CC3)C2)c(F)cc2c(=O)c(C(=O)O)cn(C3CC3)c12` the figure was 233 to 235 °C; with `CC(C)(C)c1cn(Cc2ccccc2)c([C@@H](Cc2c[nH]c3ccccc23)NCc2ccccc2)n1`, 60 to 62 °C; with `CC1=NN(C(=O)NS(=O)(=O)c2ncccc2C(F)(F)F)C(c2ccccc2)C1` (stereo unspecified), 185 to 187 °C.
Then `CCOCc1nc2c(N)nc3ccccc3c2n1CCOCCNS(C)(=O)=O`, with 152 to 155 °C; and `C#Cc1c(OC)nc(C)nc1C(F)(F)F`, with 77 °C; and `CC1=C(C(=O)OC2CN(C(c3ccccc3)c3ccccc3)C2)C(c2cccc([N+](=O)[O-])c2)C(C(=O)OC(C)C)=C(N)N1` (stereo unspecified), with 104 to 107 °C.
The compound `CCCc1cc(C(=O)NCCC(N)=O)ccc1OC(C(=O)NS(=O)(=O)c1ccc(C(C)C)cc1)c1ccc2c(c1)OCO2` (stereo unspecified) came in with a melting point of 110 to 112 °C.
Then `Cc1ccc2c([N+](=O)[O-])cc([N+](=O)[O-])c(O)c2n1`, with 295 to 300 °C; and `NC(=S)NN=C(CNC(=O)c1ccccc1)c1ccccc1`, with 171 to 172 °C; and `CCCCNc1nc(C)c(C#N)cc1C(=O)OCC`, with 61 to 63 °C.
With `CCCCNc1cc(C(=O)O)cc(S(=O)(=O)NCCCC)c1Sc1ccc(N)cc1` the figure was 198 to 200 °C.
Then `CCn1c(=O)n(Cc2ccccc2)c(=O)c2cc(C(=O)OCc3ccccc3)sc21`, with 147 to 148 °C.
Compound `C[C@@H](O)CNC1=NS(=O)(=O)c2sc(Cl)cc2N1` displayed a melting point of 210 to 211 °C.
Then `OCCNCC(O)c1ccccc1` (stereo unspecified), with 96 to 98 °C; and `Cn1cnc(COc2nn3c(-c4ccon4)nnc3c3ccccc23)c1`, with 191 to 192 °C.
Then `Cc1cccc(-c2[nH]c(C(C)C)nc2-c2cccc(-c3ccc(NC(=O)NN4CCOCC4)cc3)c2)n1`, with 146 to 148 °C; and `CNC(=NC#N)NCCSCc1ccc(CN(C)C)o1`, with 79 to 81.5 °C; and `O=C(O)CNC(=O)c1ccc(-c2ccc3nnn(Cc4ccc5ncccc5c4)c3n2)cc1F`, with 252 to 254 °C.
Then `Cc1nc[nH]c1CSCCN=C(NC#N)NCCCCCCCN`, with 84 to 87 °C; and `CCCn1c(=O)n(CC(C)=O)c(=O)c2[nH]c(C34CC5CC(CC3C5)C4)nc21`, with 181 to 184 °C; and `CCCn1c(=O)n(Cc2ccccc2)c(=O)c2nc(-c3ccc(/C=C/C(=O)O)cc3)[nH]c21`, with over 300 °C.
Take `O=C(NCCc1ncc(Cl)cc1Cl)c1ccccc1C(F)(F)F`: the melting point worked out at 118 °C.
For the compound `CCOC(=O)CC(=O)c1cn(C(c2ccccc2)(c2ccccc2)c2ccccc2)cn1`, the melting point was in the range of 136 to 139 °C.
With `CS(=O)(=O)c1cccc(C(=O)Nc2ccc(-n3nc(C(F)(F)F)cc3C3CC3)cc2)c1` the figure was 178 to 184 °C; with `O=C1c2cscc2C(=O)c2cscc21`, 340 °C; with `CN1C(=O)CC[C@]2(C)c3ccc(-c4ccccc4C#N)cc3CC[C@@H]12`, 54 to 55 °C.
With `CCOC(=O)c1ccc(CCN2CCN(CCCS(=O)(=O)O)CC2)cc1` the figure was 235 to 236 °C; with `COc1cc(C(C)=O)ccc1OCCN1CCC(C(O)(c2ccc(F)cc2)c2ccc(F)cc2)CC1`, 131 to 135 °C.
Then `O=c1n(-c2ccccc2)nc2c3ccccc3nc(Cl)n12`, with 167 to 168 °C; and `COc1cc(C(O)CN2CCC(O)(c3ccccc3)CC2)on1` (stereo unspecified), with 166 to 168 °C; and `COc1cc2c(cc1O)CCN(S(=O)(=O)c1ccccc1OC)C2`, with 140 to 142 °C.
In turn, `S=c1nc2ccc(Br)cn2c(=S)n1-c1ccc(Br)cn1` displayed a melting point of 77 °C.
With `CC1COc2c(N3CCC(CN)C3)c(F)cc3c(=O)c(C(=O)O)cn1c23` (stereo unspecified) the figure was 213 to 216 °C; with `COc1cc(N)c(Cl)cc1C(=O)N[C@H]1CCN(CCCNc2nc3ccccc3s2)C[C@H]1OC` (relative stereo), 162 °C; with `CCCC(C)COc1cc(CCl)c(OC)cc1CCl` (stereo unspecified), 78 to 80 °C.
With `Cc1ccc2cccc(OCc3c(Cl)ccc(C(=O)NCCN4C(=O)c5ccccc5C4=O)c3Cl)c2n1` the figure was 210 to 212 °C.
Then `COc1ccc2c(c1)C1=NNC(c3ccncc3)C1CCC2` (stereo unspecified), with 162 to 166 °C; and `O=C(Nc1cc(C(F)(F)F)cc(C(F)(F)F)c1)c1ccccc1SSc1ccccc1C(=O)Nc1cc(C(F)(F)F)cc(C(F)(F)F)c1`, with 213 to 214 °C; and `O=C(NCc1ncc(C(F)(F)F)cc1Cl)c1ccc(Br)o1`, with 77.8 °C.
Take `CC(C)(C)OC(=O)N[C@H](CCCNC(N)=N[N+](=O)[O-])C(=O)NCc1ccc(CNC(N)=O)cc1`: the melting point is 172 °C.
With `CCCNC(=O)c1ccc2c(c1)C(=O)NC(C(Cl)(Cl)Cl)O2` (stereo unspecified) the figure was 228 to 230 °C.
Then `CC(=O)NCC1CN(c2ccc(N3CCN(c4nc5ccc([N+](=O)[O-])cc5s4)CC3)c(F)c2)C(=O)O1` (stereo unspecified), with 216 to 217 °C.
For `COc1ccc(Cl)cc1C(=O)NC1Cc2cc(S(N)(=O)=O)c(OC)cc2OC1(C)C` (stereo unspecified), the melting point was 228 °C.
With `CCN(CC)c1ccc(C2(c3c(C)n(CC)c4ccccc34)OC(=O)c3ccccc32)c(N(CC)CC)c1` (stereo unspecified) the figure was 139 to 140 °C; with `CCn1cc(C(=O)O)c(=O)c2cc(F)c(N3CCN(C)C(c4ccc(C)s4)C3)cc21` (stereo unspecified), 224 °C; with `C=CCN(C(=O)C(C#N)=CNC(=N)N1CC(C)(C)NC1=O)c1cccc(C(F)(F)F)c1`, 184 to 185 °C.
Then `CNc1cc(F)ccc1C(=O)CS(=O)(=O)N(C)C`, with 120 to 124 °C; and `CCOC(=O)Cc1c([N+](=O)[O-])cc(O)c2ccccc12`, with 96 to 100 °C; and `CC1=CC(=C(C#N)C#N)C=C(C)S1(=O)=O`, with 176 to 177 °C.
With `c1ccc2cc(CSCc3ccc4ccccc4c3)ccc2c1` the figure was 119 to 121 °C.
Take `COc1ccc(Cn2c(=O)cc(C(F)(F)F)n(C)c2=O)cc1`: the melting point lay in the range of 79 to 80 °C.
With `CCC(O)(c1ccc(OCCCc2ccccc2)cc1)c1ccccc1OC` (stereo unspecified) the figure was 75 to 76 °C.
Then `CC(=O)NC1Cc2ccc(Cl)cc2C1` (stereo unspecified), with 117 to 119 °C; and `Nc1ccc(C(CC2CCCC2)C(=O)Nc2nccs2)cc1` (stereo unspecified), with 102 to 107 °C.
